In PubChem BioAssay (NCI):
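96-well plates; 48 h exposure; 5 concentrations. Endpoints by linear interpolation between flanking doses. Not reached: highest tested concentration assigned. TGI: concentration producing complete growth inhibition.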

Legend:
Test in all cases: DTP human tumour cell line panel, 48 h
[1] = test system: HOP-92 NSCLC
[2] = test system: MDA-N
[3] = test system: SN12C renal
[4] = test system: UACC-257 melanoma
[5] = test system: A549 NSCLC
[6] = test system: SNB-75 CNS
[7] = test system: CAKI-1 renal
[8] = test system: RXF 393 renal
[9] = test system: MALME-3M melanoma
[10] = test system: OVCAR-8 ovarian
[11] = test system: SF-295 CNS
[12] = test system: OVCAR-3 ovarian
[13] = test system: 786-0 renal
[14] = test system: OVCAR-4 ovarian
[15] = test system: IGROV1 ovarian
[16] = test system: NCI-H522 lung
[17] = test system: UO-31 renal
[18] = test system: EKVX NSCLC
[19] = test system: HL-60(TB) leukemia
[20] = test system: NCI/ADR-RES ovarian
[21] = test system: UACC-62 melanoma
[22] = test system: BT-549 breast
[23] = test system: SK-MEL-28 melanoma
[24] = test system: K-562 leukemia
[25] = test system: NCI-H226 lung
[26] = test system: PC-3 prostate
[27] = test system: SK-OV-3 ovarian
[28] = test system: ACHN renal
[29] = test system: TK-10 renal
[30] = test system: LOX IMVI melanoma
[31] = test system: HCT-15 colon
[32] = test system: HOP-62 NSCLC
[33] = test system: MDA-MB-435
[34] = test system: SK-MEL-2 melanoma
[35] = test system: SK-MEL-5 melanoma
[36] = test system: OVCAR-5 ovarian
[37] = test system: SR leukemia
[38] = test system: MCF7 breast
[39] = test system: HT29 colon
[40] = test system: KM12 colon
[41] = test system: SNB-19 CNS
[42] = test system: NCI-H460 lung
[43] = test system: M14 melanoma
[44] = test system: HCC-2998 colon
[45] = test system: SF-268 CNS
[46] = test system: NCI-H23 lung
[47] = test system: HS 578T breast
[48] = test system: A498 renal
[49] = test system: SF-539 CNS
[50] = test system: MOLT-4 leukemia
[51] = test system: CCRF-CEM leukemia
[52] = test system: U251 CNS
[53] = test system: HCT-116 colon
[54] = test system: RPMI-8226 leukemia
[55] = test system: T-47D breast
[56] = test system: SW-620 colon
[57] = test system: COLO 205 colon
[58] = test system: MDA-MB-231 breast
[59] = test system: DU-145 prostate
[60] = test system: DLD-1 colon
[61] = test system: KM20L2 colon
[62] = test system: XF 498 CNS
[63] = test system: DMS 114 small cell lung
[64] = test system: HOP-18 NSCLC
[65] = test system: LXFL 529 NSCLC
[66] = test system: SNB-78 CNS
[67] = test system: M19-MEL melanoma

In the case of C[N+](C)(C)CC1Cc2ccccc2C1=O (centres undefined), the TGI [1] is reported as > 10 µM, the TGI [2] is reported as > 10 µM and the TGI [3] is reported as > 10 µM. The TGI [4] was > 10 µM, the TGI [5] was > 10 µM and the TGI [6] was > 10 µM. The TGI [7] was > 8.58 µM, the TGI [8] was > 10 µM and the TGI [9] was 4.53 µM. The TGI [10] was > 3.16 µM, the TGI [11] was > 10 µM and the TGI [12] was > 10 µM. For the same compound, the TGI [13] was > 10 µM, the TGI [14] was 8.07 µM and the TGI [15] was > 10 µM. The TGI [16] was 4.56 µM, the TGI [17] was > 10 µM and the TGI [18] was > 10 µM. For the same compound, the TGI [19] was 4.45 µM, the TGI [20] was > 6.85 µM and the TGI [21] was > 10 µM. The TGI [22] was > 10 µM, the TGI [23] was > 10 µM and the TGI [24] was 5.07 µM. The TGI [25] was > 10 µM, the TGI [26] was > 10 µM and the TGI [27] was > 10 µM. For the same compound, the TGI [28] was > 10 µM, the TGI [29] was > 10 µM and the TGI [30] was > 10 µM. The TGI [31] was > 10 µM, the TGI [32] was > 10 µM and the TGI [33] was > 10 µM. For the same compound, the TGI [34] was > 10 µM, the TGI [35] was > 10 µM and the TGI [36] was > 10 µM. For the same compound, the TGI [37] was 7.11 µM, the TGI [38] was 5.41 µM and the TGI [39] was > 10 µM. For the same compound, the TGI [40] was > 10 µM, the TGI [41] was > 10 µM and the TGI [42] was > 10 µM. For the same compound, the TGI [43] was > 6.99 µM, the TGI [44] was > 10 µM and the TGI [45] was > 10 µM. The TGI [46] was > 10 µM, the TGI [47] was > 10 µM and the TGI [48] was > 10 µM. The TGI [49] was > 10 µM, the TGI [50] was 4.95 µM and the TGI [51] was 4.22 µM. The TGI [52] was > 10 µM, the TGI [53] was 3.11 µM and the TGI [54] was > 6.86 µM. The TGI [55] was 6.49 µM, the TGI [56] was 3.84 µM and the TGI [57] was > 6.59 µM. For the same compound, the TGI [58] was > 10 µM and the TGI [59] was > 10 µM.

With Cc1cc2c(cn1)C(=O)OCC2 the TGI [60] was > 100 µM, the TGI [61] was > 100 µM and the TGI [62] was > 100 µM. The TGI [3] was > 100 µM, the TGI [4] was > 100 µM and the TGI [5] was > 100 µM. The TGI [6] was > 100 µM, the TGI [63] was > 100 µM and the TGI [8] was > 100 µM. For the same compound, the TGI [9] was > 100 µM, the TGI [10] was > 100 µM and the TGI [11] was > 100 µM. The TGI [12] was > 100 µM, the TGI [13] was > 100 µM and the TGI [14] was > 100 µM. For the same compound, the TGI [15] was > 100 µM, the TGI [17] was > 100 µM and the TGI [18] was > 100 µM. The TGI [19] was > 100 µM, the TGI [21] was > 100 µM and the TGI [23] was > 100 µM. The TGI [24] was > 100 µM, the TGI [64] was > 100 µM and the TGI [25] was > 100 µM. For the same compound, the TGI [27] was > 100 µM, the TGI [28] was > 100 µM and the TGI [29] was > 100 µM. The TGI [30] was > 100 µM, the TGI [32] was > 100 µM and the TGI [65] was > 100 µM. The TGI [36] was > 100 µM, the TGI [37] was > 100 µM and the TGI [39] was > 100 µM. The TGI [40] was > 100 µM, the TGI [66] was > 100 µM and the TGI [41] was > 100 µM. For the same compound, the TGI [42] was > 100 µM, the TGI [43] was > 100 µM and the TGI [44] was > 100 µM. The TGI [45] was > 100 µM, the TGI [46] was > 100 µM and the TGI [48] was > 100 µM. The TGI [49] was > 100 µM, the TGI [50] was > 100 µM and the TGI [51] was > 100 µM. The TGI [52] was > 100 µM, the TGI [53] was > 100 µM and the TGI [54] was > 100 µM. For the same compound, the TGI [56] was > 100 µM and the TGI [67] was > 100 µM.
